What follows are molecules tested against T1, CRTH2 (Homo sapiens, UniProt Q9Y5Y4) (assay: Radioligand binding Scintillation Proximity Assay ([3H]PGD2, hCRTH2-CHO cell membranes)). Settings: 1.5 nM [3H]PGD2, hCRTH2-CHO cell membranes, SPA.
T1 sequence (Q9Y5Y4 1-395): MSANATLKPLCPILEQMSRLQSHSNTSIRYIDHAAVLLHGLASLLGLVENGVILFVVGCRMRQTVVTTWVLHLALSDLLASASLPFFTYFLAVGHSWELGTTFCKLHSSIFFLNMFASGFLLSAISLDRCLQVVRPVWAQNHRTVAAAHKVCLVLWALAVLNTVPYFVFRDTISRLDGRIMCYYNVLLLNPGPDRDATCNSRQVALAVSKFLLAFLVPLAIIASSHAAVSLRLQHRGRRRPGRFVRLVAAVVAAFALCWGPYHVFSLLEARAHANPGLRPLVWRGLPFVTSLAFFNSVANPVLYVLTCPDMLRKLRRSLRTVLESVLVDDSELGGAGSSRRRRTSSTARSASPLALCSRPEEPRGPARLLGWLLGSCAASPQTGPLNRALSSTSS
Design: host or cells: CHO cells
Method: Adherent CHO cells expressing hCRTH2 (Euroscreen, Belgium) were cultured in 225 cm^2 cell culture flasks (Corning, USA) in 30 ml of medium. After two rinses of phosphate buffered saline (PBS), cells were harvested in 10 ml of PBS containing 1 mM EDTA, centrifuged at 500×g for 5 min at 4° C. and frozen at −80° C. The pellet was re-suspended in 50 mM Tris-HCl, pH 7.4, 2 mM EDTA, 250 mM Sucrose, containing protease inhibitor cocktail tablets, (Complete EDTA-free, Roche, Germany) and incubated 30 min at 4° C. Cells were disrupted by nitrogen cavitation (Parr Instruments, USA) at 4° C. (800 p.s.i. for 30 min), and centrifuged at 500×g for 10 min at 4° C. Pellet containing nuclei and cellular debris was discarded and supernatant was centrifuged 60 min at 4° C. at 45000×g. Membrane pellet was re-suspended in storage buffer (10 mM HEPES/KOH pH 7.4, 1 mM EDTA, 250 mM sucrose, protease inhibitor cocktail tablets) using Dounce homogenization and frozen in liquid nitrogen, and stored at −80° C.
The inhibitory activity can be investigated by a radioligand binding Scintillation Proximity Assay (SPA) (Sawyer et al., Br. J. Pharmocol 2002, 137, 1163-72). The SPA radioligand binding assay was performed at room temperature in binding buffer (10 mM HEPES/KOH pH 7.4, 10 mM MnCl2, with protease inhibitor cocktail tablets), containing 1.5 nM [^3H]PGD2 (Perkin Elmer), 10-50 μg/ml of hCRTH2-CHO cell membrane protein and 2 mg/ml of Wheat-germ agglutinin Sintillation Proximity Assay beads (RPNQ0001, GE-Healthcare) in a final volume of 100 μl in 96 well plates (Corning, USA). Non-specific binding was determined in the presence of 10 μM PGD2 (Cayman, USA). Competing Compounds of Formula (I) were diluted in dimethylsulphoxide so that the total volume of dimethylsulfoxide was kept constant at 1% dimethylsulphoxide (Me2SO). Serial dilutions of 100 μM to 100 pM were prepared and 10 μl each of the compounds of Formula (I) stock solutions were added to the binding assay reagents and incubated for 90 min with agitation at room temperature. Binding activity was determined by using a 1450 Micro-beta scintillation counter (Wallac, UK).

SMILES	IC50 [µM]
Cc1ccc(S(=O)(=O)N2CCN(C)CC2)cc1C#Cc1cc(Cl)ccc1OCC(=O)O [Example 112, [4-chloro-2-({2-methyl-5-[(4-methylpiperazin-1-yl)sulfonyl]phenyl}ethynyl)phenoxy]acetic acid]	0.027
Cc1ccc(S(=O)(=O)NCC(C)(C)C)cc1C#Cc1cc(Cl)ccc1OCC(=O)O [Example 113, {4-chloro-2-[(5-{[(2,2-dimethylpropyl)amino]sulfonyl}-2-methylphenyl)ethynyl]phenoxy}acetic acid]	0.002
CCC(C)NS(=O)(=O)c1ccc(C)c(C#Cc2cc(Cl)ccc2OCC(=O)O)c1 (centres unmarked) [Example 114, [2-({5-[(sec-butylamino)sulfonyl]-2-methylphenyl}ethynyl)-4-chlorophenoxy]acetic acid]	0.003
CCCN(C)S(=O)(=O)c1ccc(C)c(C#Cc2cc(Cl)ccc2OCC(=O)O)c1 [Example 115, {4-chloro-2-[(2-methyl-5-{[methyl(propyl)amino]sulfonyl}phenyl)ethynyl]phenoxy}acetic acid]	0.005
CCCN(CCC)S(=O)(=O)c1ccc(C)c(C#Cc2cc(Cl)ccc2OCC(=O)O)c1 [Example 116, [4-chloro-2-({5-[(dipropylamino)sulfonyl]-2-methylphenyl}ethynyl)phenoxy]acetic acid]	0.008
CCCNS(=O)(=O)c1ccc(C)c(C#Cc2cc(Cl)ccc2OCC(=O)O)c1 [Example 118, [4-chloro-2-({2-methyl-5-[(propylamino)sulfonyl]phenyl}ethynyl)phenoxy]acetic acid]	0.004
Cc1ccc(S(=O)(=O)N(C)CCCN(C)C)cc1C#Cc1cc(Cl)ccc1OCC(=O)O [Example 119, {4-chloro-2-[(5-{[[3-(dimethylamino)propyl](methyl)amino]sulfonyl}-2-methylphenyl)ethynyl]phenoxy}acetic acid]	0.369
Cc1ccc(S(N)(=O)=O)cc1C#Cc1cc(Cl)ccc1OCC(=O)O [Example 120, (2-{[5-(aminosulfonyl)-2-methylphenyl]ethynyl}-4-chlorophenoxy)acetic acid]	0.025
Cc1ccc(S(=O)(=O)N(C)C2CCCC2)cc1C#Cc1cc(Cl)ccc1OCC(=O)O [Example 121, {4-chloro-2-[(5-{[cyclopentyl(methyl)amino]sulfonyl}-2-methylphenyl)ethynyl]phenoxy}acetic acid]	0.008
Cc1ccc(S(=O)(=O)N(C)CCN(C)C)cc1C#Cc1cc(Cl)ccc1OCC(=O)O [Example 122, {4-chloro-2-[(5-{[[2-(dimethylamino)ethyl](methyl)amino]sulfonyl}-2-methylphenyl)ethynyl]phenoxy}acetic acid]	0.452
Cc1ccc(S(=O)(=O)N2CCC2)cc1C#Cc1cc(Cl)ccc1OCC(=O)O [Example 123, (2-{[5-(azetidin-1-ylsulfonyl)-2-methylphenyl]ethynyl}-4-chlorophenoxy)acetic acid]	0.005
O=C(O)COc1ccc(Cl)cc1C#Cc1ccc(C(=O)N2CCOCC2)cc1 [Example 124, (4-chloro-2-{[4-(morpholin-4-ylcarbonyl)phenyl]ethynyl}phenoxy)acetic acid]	0.106
CN(C)C(=O)c1ccc(C#Cc2cc(Cl)ccc2OCC(=O)O)cc1 [Example 125, [4-chloro-2-({4-[(dimethylamino)carbonyl]phenyl}ethynyl)phenoxy]acetic acid]	0.057
O=C(O)COc1ccc(Cl)cc1C#Cc1cccc(C(=O)N2CCOCC2)c1 [Example 126, (4-chloro-2-{[3-(morpholin-4-ylcarbonyl)phenyl]ethynyl}phenoxy)acetic acid]	0.06
CN(C)C(=O)c1cccc(C#Cc2cc(Cl)ccc2OCC(=O)O)c1 [Example 127, [4-chloro-2-({3-[(dimethylamino)carbonyl]phenyl}ethynyl)phenoxy]acetic acid]	0.068
CCCS(=O)(=O)c1cccc(C#Cc2cc(Cl)cnc2OCC(=O)O)c1 [Example 128, [(5-chloro-3-{[3-(propylsulfonyl)phenyl]ethynyl}pyridin-2-yl)oxy]acetic acid]	0.063
CCCS(=O)(=O)c1ccc(F)c(C#Cc2cc(Cl)cnc2OCC(=O)O)c1 [Example 129, [(5-chloro-3-{[2-fluoro-5-(propylsulfonyl)phenyl]ethynyl}pyridin-2-yl)oxy]acetic acid]	0.01
O=C(O)COc1ccc(Cl)cc1C#Cc1cc(S(=O)(=O)C(F)(F)F)ccc1Cl [Example 130, [4-chloro-2-({2-chloro-5-[(trifluoromethyl)sulfonyl]phenyl}ethynyl)phenoxy]acetic acid]	0.009
CCCS(=O)(=O)c1cccc(C#Cc2cc(-c3sc(C)nc3C)ccc2OCC(=O)O)c1 [Example 132, (4-(2,4-dimethyl-1,3-thiazol-5-yl)-2-{[3-(propylsulfonyl)phenyl]ethynyl}phenoxy)acetic acid]	0.068
CCCS(=O)(=O)c1cccc(C#Cc2cc(-c3ccsc3)ccc2OCC(=O)O)c1 [Example 133, [2-{[3-(propylsulfonyl)phenyl]ethynyl}-4-(3-thienyl)phenoxy]acetic acid]	0.023
CCCS(=O)(=O)c1cccc(C#Cc2cc(-c3cccs3)ccc2OCC(=O)O)c1 [Example 134, [2-{[3-(propylsulfonyl)phenyl]ethynyl}-4-(2-thienyl)phenoxy]acetic acid]	0.015
CCCS(=O)(=O)c1cccc(C#Cc2cc(-c3cnn(C)c3)ccc2OCC(=O)O)c1 [Example 135, (4-(1-methyl-1H-pyrazol-4-yl)-2-{[3-(propylsulfonyl)phenyl]ethynyl}phenoxy)acetic acid]	0.53
CCCS(=O)(=O)c1cccc(C#Cc2cc(-c3c(C)nn(C)c3C)ccc2OCC(=O)O)c1 [Example 136, [2-{[3-(Propylsulfonyl)phenyl]ethynyl}-4-(1,3,5-trimethyl-1H-pyrazol-4-yl)phenoxy]acetic acid]	0.36
Cc1ccc(NS(C)(=O)=O)cc1C#Cc1cc(Cl)ccc1OCC(=O)O [Example 137, [4-chloro-2-({2-methyl-5-[(methylsulfonyl)amino]phenyl}ethynyl)phenoxy]acetic acid]	0.07
Cc1ccc(N(C)S(C)(=O)=O)cc1C#Cc1cc(Cl)ccc1OCC(=O)O [Example 138, [4-chloro-2-({2-methyl-5-[methyl(methylsulfonyl)amino]phenyl}ethynyl)phenoxy]acetic acid]	0.15
Cc1ncc(S(=O)(=O)N(C)C)cc1C#Cc1cc(Cl)ccc1OCC(=O)O [Example 139, [4-chloro-2-({5-[(dimethylamino)sulfonyl]-2-methylpyridin-3-yl}ethynyl)phenoxy]acetic acid]	0.051
COc1ccc(-c2ccc(C#Cc3cc(Cl)ccc3OCC(=O)O)cc2S(C)(=O)=O)cc1 [Example 141, (4-chloro-2-{[4′-methoxy-2-(methylsulfonyl)biphenyl-4-yl]ethynyl}phenoxy)acetic acid]	0.008
COc1cccc(-c2ccc(C#Cc3cc(Cl)ccc3OCC(=O)O)cc2S(C)(=O)=O)c1 [Example 142]	0.009
CS(=O)(=O)c1cc(C#Cc2cc(Cl)ccc2OCC(=O)O)ccc1-c1ccc(C(F)(F)F)cc1 [Example 143, (4-chloro-2-{[2-(methylsulfonyl)-4′-(trifluoromethyl)biphenyl-4-yl]ethynyl}phenoxy)acetic acid]	0.05

From patent US8273769B2, “Phenoxy acetic acid derivatives” (Merck Serono SA, priority 2009, dated 2012)
